{"source": "paper PMC10140954", "about": "“Thiolactones and Δ^8,9-Pregnene Steroids from the Marine-Derived Fungus Meira sp. 1210CH-42 and Their α-Glucosidase Inhibitory Activity” (Marine Drugs, 2023)", "target": "α-glucosidase", "test": "α-glucosidase inhibition assay (pNPG substrate, absorbance at 405 nm)", "type": "biochemical", "settings": "for IC50: 0.1 M PBS pH 7.4, 37 °C, α-glucosidase 0.2 U/mL, 5 mM pNPG, triplicate, read-out: α-Glucosidase inhibitory activity, IC50 (50% inhibitory concentration)", "description": "All the assays were carried out under 0.1 M PBS buffer (pH 7.4, Sigma). The samples (10 mM) were dissolved with DMSO (Sigma) and diluted into gradient concentrations with PBS buffer. The pre-reaction mixture consisted of the 130 μL sample with 30 μL α-glucosidase solution (0.2 U/mL, Sigma) and shaken well, then added to a 96-well plate and placed at 37 °C for 10 min in an incubator. Subsequently, 40 μL of 5 mM p-nitrophenyl-α-D-glucopyranoside (pNPG, TCI) was added and further incubated at 37 °C for 20 min. Finally, the α-glucosidase inhibitory activity was determined by measuring the release of […] at 405 nm of the microplate reader. The negative control was prepared by adding PBS buffer instead of the sample in the same way as the test. The blank was prepared by adding PBS buffer instead of pNPG using the same method.", "data": [{"smiles": "CC(=O)N[C@@H]1C(=O)SC[C@@H]1C", "note": "[Compound 1, 2S-acetamide-3R-methyl-thiolactone]", "values": [{"measurement": "IC50", "value": "> 400", "unit": "µM"}, {"measurement": "α-glucosidase inhibitory activity in words", "setting": "at a concentration of 400 μM", "value": "weak inhibitory activity"}]}, {"smiles": "CC(=O)N[C@H]1C(=O)SC[C@@H]1C", "note": "[Compound 2, 2R-acetamide-3R-methyl-thiolactone]", "values": [{"measurement": "IC50", "value": 148, "unit": "µM"}]}, {"smiles": "CC(=O)[C@H]1CC[C@H]2C3=C(CC[C@]12C)[C@@]1(C)CC[C@H](O)C[C@@H]1CC3", "note": "[Compound 3, Δ^8,9-3β-hydroxy-5α-17-acetyl steroid]", "values": [{"measurement": "IC50", "value": 280, "unit": "µM"}]}, {"smiles": "CC(=O)C1CCC2C3=C(CCC12C)C1(C)CCC(O)CC1CC3", "note": "(stereo not drawn) [Compound 4, Δ^8,9-3α-hydroxy-5α-17-acetyl steroid]", "values": [{"measurement": "IC50", "value": 86, "unit": "µM"}]}]}
